Laboratory results: article PMC4222603, “Dual inhibition of HIV-1 replication by integrase-LEDGF allosteric inhibitors is predominant at the post-integration stage” (Retrovirology, 2013)

How the values were obtained:
[1] = molecular target: T1, IN strand transfer activity (full-length HIV-1 IN) (Human immunodeficiency virus type 1 group M subtype B, UniProt P12497); experiment: IN strand transfer radioactive assay; type: biochemical
T1 construct: were carried out at 37°C with the full-length HIV-1 IN
Text: (§1) Sequences of the different oligonucleotides (ODN) substrates are U5B: 5′-[…]-3′, U5A: 5′- […]-3′ and U5B-2: 5′-[…]-3′. ODNs were purchased from Eurogentec and further purified by electrophoresis in a denaturing 16% acrylamide/urea gel. For activity assays, ODNs (U5B and U5B-2) were radiolabelled with T4 polynucleotide kinase (New England Biolabs) and γ[^32-P]ATP (3000 Ci/mmol) (Amersham), and purified on a Sephadex G-10 column (GE Healthcare). Double-stranded ODNs (U5B with U5A and U5B-2 with U5A used for 3′-processing and strand transfer reactions, respectively) were obtained by mixing equimolar amounts of complementary strands in the presence of 100 mM NaCl.
(§2) IN activity assays – 3′-processing, strand transfer – were carried out at 37°C with the full-length HIV-1 IN, in a buffer containing 10 mM HEPES (pH 7.2), 1 mM DTT, 7.5 mM MgCl2 in the presence of 6.25 nM DNA (3′-processing) or 12.5 nM DNA (strand transfer) as described previously. For negative control, 100 mM Na2EDTA was added to the reaction before incubation. Products were separated by electrophoresis in denaturing 16% acrylamide/urea gels. Gels were analysed with a Molecular Dynamics STORM phosphoimager and quantified with ImageQuant™ 4.1 software.

[2] = molecular target: T2, IN 3′ processing activity (Human immunodeficiency virus type 1 group M subtype B, UniProt P12497); experiment: IN 3′ processing radioactive assay; type: biochemical, HIV-1; settings: at 100 nM
T2 construct: were carried out at 37°C with the full-length HIV-1 IN
Text: as §1, §2

[3] = molecular target: His6-IN A128T (HIV-1 NL4-3 integrase mutant A128T) (HIV-1 NL4-3); experiment: SEC; Superdex 200 10/300 GL, 0.4 mL/min, 50 mM HEPES pH 7.5, 1 M NaCl, 7 mM CHAPS, 5 mM MgCl2, 10 mM DTT, 10% glycerol, room temperature; His6-IN wt 21 uM or His6-IN A128T 40 uM incubated for 10 min with 100 uM BI-D or Mut101 before injection
[4] = molecular target: His6-IN A128T (HIV-1 NL4-3 integrase mutant A128T) (HIV-1 NL4-3); experiment: SEC; Superdex 200 10/300 GL, 0.4 mL/min, 50 mM HEPES pH 7.5, 1 M NaCl, 7 mM CHAPS, 5 mM MgCl2, 10 mM DTT, 10% glycerol, room temperature; His6-IN wt 21 uM or His6-IN A128T 40 uM; no compound

Compound | IC50 [1] | inhibition at 0.1 µM [2] | stoichiometry N [3] | stoichiometry N [4]
C[C@@H]1CCO[C@H]2Cn3cc(C(=O)NCc4ccc(F)cc4F)c(=O)c(O)c3C(=O)N12 [DTG, Dolutegravir, reference compound] | 2.7 nM | 16% | – | –
His6-IN A128T (HIV-1 NL4-3 integrase mutant A128T) (enzyme) | – | – | 4 | 2
